# According to patent US20140322360A1, “METHOD AND DEVICE FOR ATTRACTING BLOOD-SUCKING ARTHROPODS” (BIOGENTS AG, priority 2011, published 2014):
# Test system: female mosquitoes
# Experiment: Y-olfactometer test of attractiveness (activation and orientation of mosquitoes)
# Format: in vivo
# Settings: A0, B0, C0 together, regardless of the CO2 concentration used
# Excerpt: Olfactometer tests are particularly useful during product development. They are used to filter out the most promising candidate substances from a number of interesting attractants or repellents quickly and cost-effectively. In particular, the olfactometer 60 has the form of a “Y”. A cage with piercing joyful female mosquitoes is connected to the lower end 62 of the “Y” of the air conditioned tubular system of the olfactometer 60. The two arms 64 and 65 of the “Y” each include the control chamber 70 and test chamber 72. Air L flows through both chambers 70, 72 and is then combined in the base leg 66 of the “Y”. During the phase when the stimulus is given, the test mosquitoes can fly into the direction of movement B into the olfactometer 60 and choose between the test chamber 72 with air containing the stimulus and the control chamber 70 containing clean air. Air L flows through the olfactometer 60 in the direction opposite to the direction of movement B of the mosquitoes, the air L being entrained with the attractant from the test chamber 72. Firstly, the activation or mobilization of the test mosquitoes is determined. This refers to a non-directional fly away of the mosquitoes when a stimulus is given. […] Then the orientation is further determined by counting the number of mosquitoes in the test chamber 72. […]
smiles,measurement,value
O=C=O [CO2],directional orientation Y,about 50%
same,undirected activation X,about 83%
